Tests used:
SMA560 glioma cells = test: Syngeneic glioma mouse model (survival); type: in vivo, VM/Dk mice; details: 50 mg/kg bodyweight via oral gavage, five days on, two days treatment holiday; survival = time until the onset of neurological symptoms; vehicle control 14 days
Description: All animal experiments were approved by the regional council Tübingen and conducted in accordance with animal law. Animals used in this study are kept and bred in the animal facility of the institute. They are regularly analyzed for infectious diseases. The inventors injected 5000 SMA560 glioma cells into the right striatum of VM/Dk mice (male and female). On day 5 post surgery, they randomized mice into treatment and control arm. The inventors administered AZD6738 (celasertib, Selleckchem, Houston, TX, US) at 50 mg/kg bodyweight or vehicle control via oral gavage for five days followed by two days of treatment holiday. Animals were closely monitored as shown in the scoring sheets. The endpoint of the experiment was according to the animal law "the time until the onset of neurological symptoms", in the text designated as "survival".

[1] = tested on: primary cultures (TUE-PC1-6); test: Viability of patient-derived primary cultures; type: cell-based; details: six primary cultures (TUE-PC1-6), 72 h
Description: Primary tumor tissue was obtained from fresh residual material upon resection at the Department of Neurosurgery, University Hospital Tübingen. The inventors cut the tissue in small pieces, washed it using Hanks Balanced Salt Solution (HBSS) (Gibco, Carlsbad, CA, US) and digested it by collagenase and dispase (Roche, Basel, CH). To remove any remaining erythrocytes, they used red blood cell lysis buffer (Sigma Aldrich, St. Louis, MO, US). The inventors then cultured the cells as GS cells in Neurobasal®-A medium. They first evaluated AZD6738 sensitivity of each primary culture and selected two concentrations. […] To evaluate combination treatment analyses, the inventors leveraged the Bliss independence Criterion.
The inventors seeded 5,000 or 10,000 cells, respectively, on day one, treated the next day in serum-free medium and incubated for up to 72 h. Subsequently, they measured cell viability using CellTiterBlue reagent (Promega, Madison, WI, US) according to manufacturer's instructions with a GloMax (Promega, Madison, Wl, US). The inventors normalized measurements to untreated cells.

LN229 and LNZ308 cells = test: DigiWest Multiplex Protein Analysis, across both cell lines; type: cell-based, human; details: 72 h
Description: After 72 h of AZD6738 treatment, the inventors detached and counted the cells and subsequently snap froze them in liquid nitrogen. For protein preparation, they kept the cells on ice and added 20-30 µL of lysis buffer (LDS Lysis Buffer (Life Technologies, Carlsbad, CA, USA), supplemented with reducing agent (Thermo Fisher Scientific, Waltham, MA, USA) and protease- (Roche Diagnostics GmbH, Mannheim, Germany) and phosphatase-inhibitor (Roche)). Proteins were denatured by heating to 95°C for 10 min before the lysates were transferred to QiaShredder Eppendorf tubes (Eppendorf, Hamburg, Germany). After centrifugation (16,000g, 5 min, RT), eluates were stored at -80°C until further use. Protein quantification was performed using in-gel staining. 1 µL of each original lysate was diluted 1:10 (v/v) in lysis buffer. The respective aliquots were denatured for 10 mins at 70°C and 10 µL were run in a NuPAGE 4-12% Bis-Tris precast gel (Thermo Fisher Scientific) according to the manufacturer's instructions. The gel was washed with water and proteins were stained with BlueBandit (VWR, Darmstadt, Germany) for 1 h. The gel was de-stained over night with ddH2O before detection on a LI-COR (LI-COR, Bad Homburg, Germany) instrument. Analysis and protein quantification was performed using ImageStudio.
The DigiWest analysis was performed as described in the art. In brief, the inventors loaded 10 µg of cellular protein on an SDS-polyacrylamide gel and size-separated them using the commercial NuPAGE system (Life Technologies). Size-separated proteins were blotted onto a PVDF membrane and biotinylated on the membrane using NHS-PEG12-Biotin (50 µM) in PBST for 1 h. After drying of the membrane, the samples lanes were cut into 96 strips of 0.5 mm width using an automated cutting plotter (Silhouette America, West Orem, UT, USA) each corresponding to a defined molecular weight fraction. Each of the strips was placed in one well of a 96-well plate and 10 µl elution buffer (8 M urea, 1% Triton-X100 in 100 mM Tris-HCl pH 9.5) was added. The eluted proteins were diluted with 90 µl of dilution buffer (5% BSA in PBS, 0.02% sodium azide, 0.05% Tween-20) and each of the protein fractions was incubated with 1 distinct magnetic color-coded bead population (Luminex, Austin, USA) coated with neutravidin. The biotinylated proteins bind to the neutravidin beads such that each bead color represents proteins of one specific molecular weight fraction. All 96 protein loaded bead populations were mixed resulting in reconstitution of the original lane. […] Beads were washed twice prior to readout on a Luminex FlexMAP 3D.
For quantification of the antibody specific signals, we used the DigiWest Analyzer software; it automatically identifies peaks of appropriate molecular weight and calculates the peak area. […]

Which results are given for `C[C@@H]1COCCN1c1cc(C2([S@](C)(=N)=O)CC2)nc(-c2cc[nH]c3nccc2-3)n1` [AZD6738, ceralasertib]?
median survival (SMA560 glioma cells): 21 days; cell viability [1]: dose-dependent reduction; NF-κB (LN229 and LNZ308 cells; across both cell lines): significant upregulation; markers for ATR target engagement such as pATR, Chk2, and Ku80 (LN229 and LNZ308 cells; across both cell lines): significant reduction; Cleaved PARP (LN229 and LNZ308 cells; both cell lines): upregulated; pH2A.X (LN229 and LNZ308 cells; both cell lines): Upregulation

— patent publication EP4473972A1, “COMBINATIONS COMPRISING AN ATR INHIBITOR WITH SYNERGISTIC EFFECT AGAINST GLIOMAS” (Eberhard-Karls-Universität Tübingen, priority 2023, dated 2024)
